Measured values published in patent US10010623B2, “Lysosome-cleavable linker” (UCL Business PLC, priority 2012, dated 2018).

O=C1OC(=O)C(Br)=C1Br [compound 1, 2,3-dibromo-maleic anhydride]
melting point: 107 to 110 °C
